Assay results published in patent US20110112149A1, “EPOTHILONE ANALOGUES, THEIR PHARMACEUTICAL COMPOSITIONS, THEIR USE AND THEIR PREPA RATIONS” (priority 2008, published 2011).
Read-outs that look alike come from different tables or passages of the source.

Experiments:
Assay type in all cases: cell-based
[1] = tested on: NCI/ADR-RES (MDR Breast Cancer); assay: SRB cytotoxicity assay, NCI/ADR-RES; conditions: cells cultured 3 days with compound, read-out: Activity against cancer cell lines (IC50), NCI/ADR-RES (MDR Breast Cancer)
Excerpt: (§1) The compounds of the present invention can be screened by conventional assays known in the art. For example, cytotoxicity of the compound can be determined according to SRB assay described in Skehan et. al., J. Natl. Cancer Inst. 1990, 82: 1107, which is incorporated herein by reference.
(§2) In the study, sulforhodamine B (SRB) was used for screening the selective compounds of the present invention according to their anti-tumor activity on four different tumor cell lines. In SRB assay, the cultured cells were trypsinized, then counted and diluted to a suitable concentration (5000-7500 cells/100 μl) with a culture medium. The cells were inoculated into a 96-well microtiter plate at 100 μl suspension/well. The test compounds were diluted in the culture medium to 2×1000 nM˜2×0.001 nM, and added to each well in 100 μl after 20 hours. The cells were then cultured for 3 days, fixed with 100 μl 10% trichloroacetic acid at 4° C. for 1 hour, and then stained with 0.2% SRB/1% acetic acid at room temperature for 20 min. The unbound dye was rinsed with 1% acetic acid. The bound dye was dissolved with 200 μl 10 mM Tris-base. The amount of the bound dye was calculated from OD value detected at wavelength of 515 nm. The amount of the bound dye was in direct proportion to the total amount of cell proteins. The data was analyzed with Kaleida Graph Program, and the half inhibitory concentration (IC50) was calculated. Epothilones D and B were detected in parallel for comparison. The results of the cytotoxic experiments on the tested selective compounds according to the present invention are shown as follows. The other compounds according to the present invention may also be detected with the similar method.

MCF-7 (Breast Cancer) = assay: SRB cytotoxicity assay, MCF-7; conditions: cells cultured 3 days with compound, read-out: Activity against cancer cell lines (IC50), MCF-7 (Breast Cancer)
Excerpt: as §1, §2

SF-268 (Glioma) = assay: SRB cytotoxicity assay, SF-268; conditions: cells cultured 3 days with compound, read-out: Activity against cancer cell lines (IC50), SF-268 (Glioma)
Excerpt: as §1, §2

NCI-H460 (Lung Cancer) = assay: SRB cytotoxicity assay, NCI-H460; conditions: cells cultured 3 days with compound, read-out: Activity against cancer cell lines (IC50), NCI-H460 (Lung Cancer)
Excerpt: as §1, §2

[2] = Homo sapiens, NCI/ADR-RES, 72 h

Compound | IC50 [1] [nM] | IC50 (MCF-7 (Breast Cancer)) [nM] | IC50 (SF-268 (Glioma)) [nM] | IC50 (NCI-H460 (Lung Cancer)) [nM] | IC50 [1, 2] [nM] | IC50 (MCF-7 (Breast Cancer); Homo sapiens, MCF7, 72 h) [nM] | IC50 (SF-268 (Glioma); Homo sapiens, SF-268, 72 h) [nM] | IC50 (NCI-H460 (Lung Cancer); Homo sapiens, NCI-H460, 72 h) [nM]
C/C(=C\c1csc(C)n1)[C@@H]1C[C@@H]2O[C@]2(C)CCC[C@H](C)[C@H](O)[C@@H](C)C(=O)C(C)(C)[C@@H](O)CC(=O)O1 [Epo B, Epothilone B, reference compound] | 5 | 0.5 | 0.8 | 0.7 |  |  |  | 
C/C1=C/C[C@@H](/C(C)=C/c2csc(C)n2)OC(=O)C[C@H](O)C(C)(C)C(=O)[C@H](C)[C@@H](O)[C@@H](C)CCC1 [Epo D, Epothilone D, reference compound] | 42 | 13 | 18 | 17 |  |  |  | 
C/C(=C\c1csc(C)n1)C(N)C1OC(=O)CC(O)C(C)(C)C(=O)C(C)C(O)C(C)CCCC2(C)OC12 (centres unmarked) [HH3] |  |  |  |  | 3 | 1 | 1 | 0.5
C/C(=C\c1csc(C)n1)C1OC(=O)CC(O)C(C)(C)C(=O)C(C)C(O)C(C)CCCC2(C)OC12 (centres unmarked) [HH6] |  |  |  |  | 1 | 0.2 | 1 | 0.5
Cc1nc2cc(C3OC(=O)CC(O)C(C)(C)C(=O)C(C)C(O)C(C)CCCC4(C)OC34)ccc2s1 (centres unmarked) [HH8] |  |  |  |  | 0.5 | 0.5 | 1 | 0.2
